Where “and” joins values, the source holds several entries; their conditions need not be identical. Equal values may be shown once.
Assays:
[1] = design: method as in doi:10.1021/ja00514a037, PMID 12453412; settings: cited from earlier work
[2] = test system: ∆pfeA(pMMBpfeAR480AQ482A) cells (double-mutant PfeA); experiment: 55Fe-enterobactin binding and uptake assay, ∆pfeA(pMMBpfeAR480AQ482A); format: cell-based, Pseudomonas aeruginosa; settings: 500 nM ^55Fe-enterobactin, 30 min
Method: (§1) Fig. 6 Effects of PfeA mutation in vivo. a Analysis of changes in the transcription of pfeA gene. PAO1 strain, its corresponding deletion mutant ∆pfeA and deletion mutants carrying the expression plasmid of PfeA wild-type (∆pfeA(pMMBpfeA) or the R480A-Q482A mutant (∆pfeA(pMMBpfeAR480AQ482A)) were grown in CAA medium supplemented with 10 µM enterobactin. The data were normalised relative to the reference gene uvrD, and are representative of three independent experiments performed in triplicate (n = 3). The results are given as a ratio between the values obtained for ∆pfeA, ∆pfeA(pMMBpfeA) and ∆pfeA(pMMBpfeAR480AQ482A) over those obtained for the PAO1 strain. b ^55Fe-enterobactin binding at the bacterial surface. Cells were grown as in panel a, and were incubated for 15 min with 200 µM CCCP before initiation of transport assays by the addition of 500 nM ^55Fe-enterobactin. After 30 min incubation, the radioactivity accumulated in the bacteria was counted. The results are expressed as pmol of ^55Fe-enterobactin bound per ml of cells at an OD600 of 1. The experiments have been repeated three times. c ^55Fe-enterobactin binding and uptake. Cells were grown as in panel a, and were incubated with or without 200 µM CCCP before initiation of transport assays by the addition of 500 nM ^55Fe-enterobactin. After 30 min incubations, the radioactivity accumulated in the bacteria was counted. The results are expressed as pmol of ^55Fe-enterobactin bound and transported per ml of cells at an OD600 of 1. The experiments have been repeated three times
(§2) The complex was prepared at ^55Fe concentrations of 50 μM, with a siderophore:iron (mol:mol) ratio of 20:1. P. aeruginosa strains were first grown overnight at 30 °C in LB broth, and were then washed, resuspended and cultured overnight at 30 °C in iron-deficient CAA medium (casamino acid medium, composition: 5 g.l^−1 low-iron CAA (Difco), 1.46 g.l^−1 K2HPO4 3H2O, 0.25 g.l^−1 MgSO4 7H2O) and in the presence of 10 µM enterobactin to induce the expression of PfeA. CAA is a highly iron-restricted medium with iron concentrations of 20 nM[59]. Afterwards bacteria were washed with 50 mM Tris-HCl pH 8.0, and diluted to an OD600 of 1. Cells solutions were divided in two, one batch being treated with 200 μM CCCP. This compound collapses the proton-motive force across the bacterial cell membranes, inhibiting TonB-dependent iron uptake. Binding and transport assays were initiated by adding 500 nM ^55Fe-enterobactin to the bacterial solutions treated or not with CCCP. After 30 min of incubations, cells were centrifuged, and the radioactivity associated to the bacteria was monitored in the cell pellets. For the cells treated with CCCP, the radioactivity in the cell pellets corresponds to the binding of ^55Fe-enterobactin to P. aeruginosa cell surface, since no uptake occurs. In the absence of CCCP, the radioactivity associated to the cells corresponds to ^55Fe-enterobactin binding to the cell surface and the uptake into the bacteria.

pfeA gene = experiment: RT-qPCR of pfeA gene transcription in strains grown with 10 µM enterobactin; format: cell-based, Pseudomonas aeruginosa; settings: replicate values, Figure 6a
Method: Fig. 6 Effects of PfeA mutation in vivo. a Analysis of changes in the transcription of pfeA gene. PAO1 strain, its corresponding deletion mutant ∆pfeA and deletion mutants carrying the expression plasmid of PfeA wild-type (∆pfeA(pMMBpfeA) or the R480A-Q482A mutant (∆pfeA(pMMBpfeAR480AQ482A)) were grown in CAA medium supplemented with 10 µM enterobactin. The data were normalised relative to the reference gene uvrD, and are representative of three independent experiments performed in triplicate (n = 3). The results are given as a ratio between the values obtained for ∆pfeA, ∆pfeA(pMMBpfeA) and ∆pfeA(pMMBpfeAR480AQ482A) over those obtained for the PAO1 strain. b ^55Fe-enterobactin binding at the bacterial surface. Cells were grown as in panel a, and were incubated for 15 min with 200 µM CCCP before initiation of transport assays by the addition of 500 nM ^55Fe-enterobactin. After 30 min incubation, the radioactivity accumulated in the bacteria was counted. The results are expressed as pmol of ^55Fe-enterobactin bound per ml of cells at an OD600 of 1. The experiments have been repeated three times. c ^55Fe-enterobactin binding and uptake. Cells were grown as in panel a, and were incubated with or without 200 µM CCCP before initiation of transport assays by the addition of 500 nM ^55Fe-enterobactin. After 30 min incubations, the radioactivity accumulated in the bacteria was counted. The results are expressed as pmol of ^55Fe-enterobactin bound and transported per ml of cells at an OD600 of 1. The experiments have been repeated three times […]
Specific pfeA gene transcription was measured by reverse transcription-quantitative PCR (RT-qPCR) from 16 h cultures in CAA medium as described in Supplementary Methods. […]
The supernatant […]
was discarded, and inner membrane proteins were solubilized in lysis buffer with 1% (w/v) N-lauroylsarkosine (Sigma-Aldrich). […]
Quantitative real-time PCR. […] The amounts of specific cDNA were assessed in a StepOne Plus instrument (Applied Biosystems) by using a Power Sybr Green PCR Master Mix […]

[3] = test system: ∆pfeA(pMMBpfeA) cells (native PfeA); experiment: 55Fe-enterobactin binding and uptake assay, ∆pfeA(pMMBpfeA); format: cell-based, Pseudomonas aeruginosa; settings: cells not treated with CCCP, 500 nM ^55Fe-enterobactin, 30 min
Method: as §1, §2

For O=C(N[C@H]1COC(=O)[C@@H](NC(=O)c2cccc(O)c2O)COC(=O)[C@@H](NC(=O)c2cccc(O)c2O)COC1=O)c1cccc(O)c1O [Enterobactin, enterobactin], the “stability when not bound to iron” value [1] is listed as “easily degraded”, the “^55Fe-enterobactin binding at the bacterial surface” value ([2]; CCCP treated cells (200 µM)) is listed as “does not bind” and the “^55Fe-enterobactin binding and uptake” value ([2]; cells not treated with CCCP) is listed as “not competent for the uptake”. For the same molecule, the “pfeA gene transcription (RT-qPCR)” value (pfeA gene; strain ΔpfeA (pMMBpfeA R480AQ482A)) was 105.534 and 104.018 and 99.7495 and 101.79 and 78.5683 and 111.303 and 100.693 and 97.5736 and 107.445, the “pfeA gene transcription (RT-qPCR)” value (pfeA gene; strain ΔpfeA (pMMBpfeA)) was 181.293 and 171.592 and 180.688 and 175.586 and 141.721 and 155.679 and 152.232 and 181.628 and 183.778 and the “pfeA gene transcription (RT-qPCR)” value (pfeA gene; strain ΔpfeA) was 0.006806 and 0.03712 and 0.02449 and 0.03211 and 0.01571 and 0.01618 and 0.0116 and 0.02148 and 0.01134. The “^55Fe-enterobactin binding and uptake” value [3] was “actively taken up”.
